Entries after “also recorded” stand apart in the source; their conditions may differ.
How the values were obtained:
CD44+/CD24low cells = assay: Flow cytometric identification of cancer stem cells from a TNBC patient; type: cell-based; settings: TNBC patient tumor derived spheroid cultures; 72 hours; FACS
Experimental: Flow cytometric identification of cancer stem cells (CSCs) by CD24-PE & CD44-FITC antibody staining in triple negative breast cancer (TNBC) patient tumor derived cells cultured as spheroid cultures and then treated with the indicated drugs for72h. Following 72 hours of treatment of the mammospheres, cells were dissociated with Acutase treatment. Following washing, cells were stained with CD24-PE & CD44-FITC antibody, washed and analyzed by FACS. The subpopulation of CD44+/CD24-low cells were gated and quantified.

[1] = Preliminary toxicity study, post mortem observations; type: in vivo, CD2 male mice; settings: day 7
Experimental: (§1) A study was conducted in wild-type CD2 male mice to evaluate and compare the effects of salinomycin (SAL) at three different concentrations and compared to a formulation of SAL in biodegradable tetra-block polymeric nanoparticles.
(§2) MICE 20-25 g male CD2 mice between the ages 6 to 8 weeks from Taconic were used. The animals were acclimatized for five days before initiating the study.
(§3) Animals were injected intravenously either with 5.0 mg/kg, 8.5 mg/kg, or 12.5 mg/kg of SAL or SAL-NPs once, according to Table 1 below. Control animals were treated with PBS.
(§4) Tolerability of the drug by animals was measured via clinical, weight and behavioral changes. The compounds were administered once on day 1. Seven days following administration, all animals were euthanized and blood was collected for a complete blood chemistry and hematology analysis (see Table 2 and 3 below). Post mortem was conducted to examine all of the animals. Different organs (brain, heart, lung, liver, spleen, stomach, intestine, kidney, and skin) were also isolated for histo-pathological evaluation by H & E staining.
On day 7 of the study, a post mortem inspection was conducted on each and every animal. […] There was slight enlargement observed on the fascia around the testis.

[2] = Preliminary toxicity study, histopathology by H & E staining; type: in vivo, CD2 male mice
Experimental: as §1, §2, §3, §4
All the animals did well in the study, except the Salinomycin 12.5 mg/kg group. The histopathological studies were conducted on brain, heart, lung, liver, spleen, stomach, intestine, kidney, muscles, and skin tissues by H & E staining. […]

[3] = Comparative toxicity in wild-type mice; type: in vivo
Experimental: The effect of nanoparticles in mitigating the toxicity of salinomycin was examined in wild-type mice. Different doses of salinomycin alone (5, 7.5, 10, 12.5 and 15 mg/kg) or salinomycin-nanoparticles (SAL-NP) (5, 7.5, 10, 12.5 and 15 mg/kg) were injected into wild-type mice. Three mice were used in each group of salinomycin alone and salinomycin-NP groups, body weights, food and water uptake were measured every day for 22 days.

For CC(=O)O[C@H]1C(=O)[C@@]2(C)[C@H]([C@H](OC(=O)c3ccccc3)[C@]3(O)C[C@H](OC(=O)[C@H](O)[C@@H](NC(=O)c4ccccc4)c4ccccc4)C(C)=C1C3(C)C)[C@]1(OC(C)=O)CO[C@@H]1C[C@@H]2O [Paclitaxel], the “effect on CD44+/CD24low cells” value (CD44+/CD24low cells) was “not much effect”.

In the case of CC[C@@H](C(=O)[C@@H](C)[C@@H](O)[C@H](C)[C@@H]1O[C@@H]([C@@H](CC)C(=O)O)CC[C@@H]1C)[C@H]1O[C@]2(C=C[C@@H](O)[C@]3(CC[C@@](C)([C@H]4CC[C@](O)(CC)[C@H](C)O4)O3)O2)[C@H](C)C[C@@H]1C [SAL, salinomycin], the Post-mortem findings ([1]; 5 mg/kg i.v. once) is reported as “did not show any observable changes; also recorded: No Changes observed”, the Post-mortem findings ([1]; 8.5 mg/kg i.v. once) is reported as “slightly reddish and slightly enlarged testis; also recorded: testis with redness; also recorded: No Changes observed” and the Post-mortem findings ([1]; 12.5 mg/kg i.v. once) is reported as “reddening of the fascia surrounding testis; also recorded: Epidydimus enalrged”. For the same compound, the “organ toxicity (conclusion)” value ([2]; 5, 8.5, 12.5 mg/kg i.v. once, day 7) was “toxicity to the liver, kidney, testis, and epididymis”, the “microscopical examination of all the tissues” value ([2]; mouse, in vivo) was “changes were observed in the kidney, liver, testis and epididymis” and the survival ([3]; 10 mg/kg) was “five”. For the same compound, the survival ([3]; 12.5 mg/kg) was “three” and the “survival (day of the study)” value ([3]; 15 mg/kg) was “died after day 3”.
